Earlier results, collected in article PMC5889410, “Design and Biological Evaluation of Antifouling Dihydrostilbene Oxime Hybrids” (Marine Biotechnology (New York, N.y.), 2018).
Values after ≈ are worked out from the molar mass of the structure shown.

System: Balanus improvisus cyprid larvae
Settings: cited from earlier work

Compound	activity against larvae settlement (B. improvisus larvae settlement, ref Ortlepp et al. [2007])	IC50 (cyprid settlement inhibition) (B. improvisus, ref Moodie et al. ([2017b])) [µg/mL]
N[C@@H](Cc1ccc(O)cc1)C(=O)NCCc1ccc(O)cc1 [Compound 5, L-Tyrosinyltyramine]	inactive	–
COc1cc(O)cc(CCc2cccc(O)c2)c1 [Compound 1, batatasin-III]	–	1.0 (≈ 4.09 µM)
